pIC50: −log10 of the molar value.
Key:
[1] = biological target: FGF-2 (Homo sapiens, UniProt P09038); assay: FGF-2/heparin competition assay by SPR (Biacore); type: binding; settings: 10 nM FGF-2, biotinylated heparin, Sensorchip C1
Procedure: (§1) Heparin or low molecular weight heparin (6 kDa) from SIGMA were biotinylated at the reducing end and immobilized on a Biacore sensorchip. Different concentrations of the compounds of the present invention were co-incubated at a fixed concentration of targets: FGF-2, PDGF-β, VEGF-A or SDF-1α for 30 minutes. The mixture was then injected onto the streptavidin control (control reference) and HP surfaces. Only free growth factor (GF) or chemokine, i.e. the target molecules not bound to compounds of the present invention, were trapped on the heparin surface. From the binding of free targets on heparin, the percentages of inhibition were calculated and then reported in function of compound concentrations. The plot was fitted with a four-parameter model and IC50 was calculated. The 0% inhibition value was obtained for the injection of the studied target in running-buffer, and the 100% inhibition value was obtained for the injection of the studied target co-incubated with 10 μM of low molecular weight heparin 6 kDa.
A FGF-2/heparin competition assay using the Biacore technology was performed in the following conditions: 10 nM FGF-2, biotinylated heparin, Reference Streptavidin, Sensorchip C1, PBS-T 0.02%, Regeneration NaCl 2M
(§2) IC50 values of compounds of the present invention were determined using the Biacore technology for the growth factor and chemokine/heparin competition assays that contained the following proteins: VEGF-A, SDF-1α, FGF-2 and PDGF-β.

[2] = biological target: PDGF-β (Homo sapiens, UniProt P01127); assay: PDGF-β/heparin competition assay by SPR (Biacore); type: binding; settings: 10 nM PDGF-β, biotinylated heparin, Sensorchip C1
Procedure: as §1, with “kDa. A PDGF-β/heparin competition assay using the Biacore technology was performed using the following conditions: 10 nM PDGF-β, biotinylated heparin, Reference Streptavidin, Sensorchip C1, HBS-P, Regeneration NaCl 2M. IC50 values of compounds of the present invention were determined using the Biacore technology for the growth factor and chemokine/heparin competition assays that contained the following proteins: VEGF-A, SDF-1α, FGF-2 and PDGF-β.” for “kDa.”

[3] = biological target: T1, VEGF-A (Homo sapiens, UniProt P15692); assay: VEGF-A/heparin competition assay by SPR (Biacore); type: binding; settings: 10 nM VEGF-A, biotinylated low molecular weight heparin, Sensorchip SA
T1 sequence (P15692 27-191 isoform P15692-4): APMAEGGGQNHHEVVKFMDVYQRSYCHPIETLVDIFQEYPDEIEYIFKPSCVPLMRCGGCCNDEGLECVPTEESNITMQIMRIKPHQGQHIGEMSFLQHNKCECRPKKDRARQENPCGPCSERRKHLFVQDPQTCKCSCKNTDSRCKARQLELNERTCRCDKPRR
Procedure: as §1
A VEGF-A/heparin competition assay using the Biacore technology was performed using the following conditions: 10 nM VEGF-A, biotinylated low molecular weight heparin, Reference Streptavidin, Sensorchip SA, HBS-P, Regeneration NaCl 2M.
as §2

[4] = biological target: SDF-1α (Homo sapiens, UniProt P48061); assay: SDF-1α/heparin competition assay by SPR (Biacore); type: binding; settings: 96 nM SDF-1α, biotinylated low molecular weight heparin (6 kDa), Sensorchip SA
Procedure: as §1
A SDF-1α/heparin competition assay using the Biacore technology was performed using the following conditions: 96 nM SDF-1α, biotinylated low molecular weight heparin (6 kDa), Reference Streptavidin, Sensorchip SA, HBS-P, Regeneration NaCl 2M
as §2

[5] = tested on: control and VEGF-A-stimulated angiogenesis (endothelial tubules, HUVEC/NHDF co-culture); assay: In vitro angiogenesis assay (endothelial tubule formation, AngioKit); type: cell-based, human; settings: 30 μM compound; anti-CD31 ELISA and AngioSys image analysis; FIGS. 13-15
From the text: These experiments are also known as endothelial tubule formation assays and they are used to evaluate the compound effects on in vitro angiogenesis (the neo-formation of blood vessels from pre-existing ones). This process is critical in tumour development as bloodstream brings all the necessary nutrients and oxygen to cancer cells.
The assay uses a commercially available product (AngioKit) specially designed for screening experiments. The product consists of a 24 or 96-well culture plate containing endothelial and fibroblast cells. A similar assay has been developed “in-house” using 48-well culture plates.
Endothelial cells will, on a ten-day period, develop into a branched network of endothelial tubules or “primitive” blood vessels. This process requires a co-culture with fibroblasts, these latter cells secreting essential growth factors for endothelial cells. At the end of the incubation period (about ten days), angiogenesis is monitored both by ELISA and image analysis software quantifying different blood vessel parameters (number and average length of tubules, field area, number of junctions for example). All reagents and material (except the oligosaccharide compounds, the VEGF-A and the 48-well plate AngioKits) are bought from TCS CellWorks (http://www.tcscellworks.co.uk) which provides: • 24 and 96-well plate AngioKits (including culture medium) • Anti-CD31 (a cell marker specifically expressed on endothelial cells) reagents for ELISA and tubule staining procedures. • AngioSys image analysis software
For home-made 48-well plate AngioKits, NHDF and HUVEC cells were independently purchased while TCS CellWorks culture medium and protocol were used.
The cell medium is replaced with fresh one (day 1) and cells are incubated at 37° C. with the compounds of interest (oligosaccharides and/or angiogenic proteins, such as growth factors). During the course of the experiment, the culture medium (including oligosaccharides and/or angiogenic proteins) is replaced at days 4 and 7.
At day 10, the assay is terminated by the labelling of endothelial cells by an ELISA procedure (indirect colorimetric titration of the endothelial cell number through dosage of the endothelial-specific CD31 marker) and the staining of endothelial tubules. Photographs of stained tubules are taken and analysed with the AngioSys image analysis software.
In the following assay the effects of compounds 239, 240, 246, 247, 248, 249, 252, 254, 255 and 257 on in vitro angiogenesis were measured (all compounds were added at the 30 μM concentration). […] For the data presented in FIG. 13, AngioSys image analyses are shown on FIG. 14. Photographs of endothelial tubules are shown on the side of the anti-CD31 ELISA (see FIGS. 13 and 15).

SMILES	pIC50 [1]	pIC50 [2]	pIC50 [3]	pIC50 [4]	inhibition of control and/or VEGF-A-stimulated angiogenesis [5]
C#CCCCOC1OC(COS(=O)(=O)O)C(OC2OC(C(=O)O)C(OC3OC(COS(=O)(=O)O)C(OC4OC(C(=O)O)C(OCc5ccccc5)C(OCc5ccccc5)C4OS(=O)(=O)O)C(OCc4ccccc4)C3NS(=O)(=O)O)C(OCc3ccccc3)C2OS(=O)(=O)O)C(OCc2ccccc2)C1NS(=O)(=O)O (stereo not drawn) [Compound 236]	6.73	5.87	6.51	5.44	–
C#CCCCOC1OC(COS(=O)(=O)[O-])C(OC2OC(C(=O)[O-])C(OC3OC(COS(=O)(=O)[O-])C(OC4OC(C(=O)[O-])C(OC5OC(COS(=O)(=O)[O-])C(OC6OC(C(=O)[O-])C(OCc7ccccc7)C(OCc7ccccc7)C6OS(=O)(=O)[O-])C(OCc6ccccc6)C5NS(=O)(=O)[O-])C(OCc5ccccc5)C4OS(=O)(=O)[O-])C(OCc4ccccc4)C3NS(=O)(=O)[O-])C(OCc3ccccc3)C2OS(=O)(=O)[O-])C(OC)C1NS(=O)(=O)[O-].[Na+].[Na+].[Na+].[Na+].[Na+].[Na+].[Na+].[Na+].[Na+].[Na+].[Na+].[Na+] (stereo not drawn) [Compound 249]	6.87	6.65	–	–	inhibition of control and/or VEGF-A-stimulated angiogenesis

Further lines, with some results ahead:

pIC50 [1]	pIC50 [2]	pIC50 [3]	pIC50 [4]	SMILES	inhibition of control and/or VEGF-A-stimulated angiogenesis [5]
6.78	6.71	7.23	6.06	C#CCCCOC1OC(COS(=O)(=O)[O-])C(OC2OC(C(=O)[O-])C(OC3OC(COS(=O)(=O)[O-])C(OC4OC(C(=O)[O-])C(OC5OC(COS(=O)(=O)[O-])C(OC6OC(C(=O)[O-])C(OCc7ccccc7)C(OCc7ccccc7)C6OS(=O)(=O)[O-])C(OC)C5NS(=O)(=O)[O-])C(OCc5ccccc5)C4OS(=O)(=O)[O-])C(OC)C3NS(=O)(=O)[O-])C(OCc3ccccc3)C2OS(=O)(=O)[O-])C(OC)C1NS(=O)(=O)[O-].[Na+].[Na+].[Na+].[Na+].[Na+].[Na+].[Na+].[Na+].[Na+].[Na+].[Na+].[Na+] (stereo not drawn) [Compound 246]	inhibition of control and/or VEGF-A-stimulated angiogenesis
6.92	6.77	–	–	C#CCCCOC1OC(COS(=O)(=O)[O-])C(OC2OC(C(=O)[O-])C(OC3OC(COS(=O)(=O)[O-])C(OC4OC(C(=O)[O-])C(OC5OC(COS(=O)(=O)[O-])C(OC6OC(C(=O)[O-])C(OCc7ccccc7)C(OCc7ccccc7)C6OS(=O)(=O)[O-])C(OCc6ccccc6)C5NS(=O)(=O)[O-])C(OC)C4OS(=O)(=O)[O-])C(OC)C3NS(=O)(=O)[O-])C(OCc3ccccc3)C2OS(=O)(=O)[O-])C(OCc2ccccc2)C1NS(=O)(=O)[O-].[Na+].[Na+].[Na+].[Na+].[Na+].[Na+].[Na+].[Na+].[Na+].[Na+].[Na+].[Na+] (stereo not drawn) [Compound 252]	inhibition of control and/or VEGF-A-stimulated angiogenesis
7.44	6.91	–	–	C#CCCCOC1OC(COS(=O)(=O)[O-])C(OC2OC(C(=O)[O-])C(OC3OC(COS(=O)(=O)[O-])C(OC4OC(C(=O)[O-])C(OC5OC(COS(=O)(=O)[O-])C(OC6OC(C(=O)[O-])C(OCc7ccccc7)C(OCc7ccccc7)C6OS(=O)(=O)[O-])C(OCc6ccccc6)C5NS(=O)(=O)[O-])C(OCc5ccccc5)C4OS(=O)(=O)[O-])C(OC)C3NS(=O)(=O)[O-])C(OC)C2OS(=O)(=O)[O-])C(OC)C1NS(=O)(=O)[O-].[Na+].[Na+].[Na+].[Na+].[Na+].[Na+].[Na+].[Na+].[Na+].[Na+].[Na+].[Na+] (stereo not drawn) [Compound 255]	inhibition of control and/or VEGF-A-stimulated angiogenesis
